According to US9981940B2, “Aryl sulfide derivatives and aryl sulfoxide derivatives as acaricides and insecticides” (BAYER CROPSCIENCE AKTIENGESELLSCHAFT, priority 2013, dated 2018):

Assays:
[1] = log P by HPLC (OECD Guideline 117), method [a] acidic range; type: physicochemical; settings: for logP[a]: HPLC, method [a] acidic range; for chromatographic logP: reversed-phase C18 HPLC column, acidic range
Method: (§1) The log P values were determined analogously to OECD Guideline 117 (EC Directive 92/69/EEC) by HPLC (high-performance liquid chromatography) using reversed-phase columns (C 18), by the following methods:
[a] The LC-MS determination in the acidic range is effected at pH 2.7 with 0.1% aqueous formic acid and acetonitrile (contains 0.1% formic acid) as eluents; linear gradient from 10% acetonitrile to 95% acetonitrile.

[2] = log P by HPLC (OECD Guideline 117), method [b] neutral range; type: physicochemical; settings: HPLC; for logP[b]: method [b] neutral range; for chromatographic logP: reversed-phase C18 HPLC column, neutral range, pH 7.8
Method: as §1
[b] The LC-MS determination in the neutral range is effected at pH 7.8 with 0.001 molar aqueous ammonium hydrogencarbonate solution and acetonitrile as eluents; linear gradient from 10% acetonitrile to 95% acetonitrile.

Tetranychus urticae = Tetranychus urticae spray test, OP-resistant (TETRUR); type: in vivo; settings: after 6 days; for pest or weed control at 500 g/ha: Tetranychus urticae, 144 h, read-out: efficacy
How it was run: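 Bean leaf discs infested with all stages of an OP-resistant Tetranychus urticae strain sprayed with compound in acetone/DMF with alkylaryl polyglycol ether emulsifier, diluted in water. Efficacy in % scored after 6 days; 100% means all mites killed.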

[3] = pH 2.7, HPLC method [a], read-out: logP[a]
[4] = pH 2.7, HPLC, pH 2.7, read-out: log P[a]

| logP[a] [1] | logP[b] [2] | chromatographic logP [1, 3] | chromatographic logP [1, 4] | chromatographic logP [2] | Structure (SMILES) | efficacy (Tetranychus urticae; application rate of 100 g/ha) [%] | efficacy (Tetranychus urticae; application rate of 500 g/ha) [%] | pest or weed control at 500 g/ha (Tetranychus urticae; application rate of 500 g/ha) [%] |
| --- | --- | --- | --- | --- | --- | --- | --- | --- |
| 3.24 | 3.20 | – | – | – | CCCCOc1nn(-c2cc([S+]([O-])CC(F)(F)F)c(C)cc2F)c(=O)n1C1CC1 (stereo not drawn) [Example 124] | 90 | – | – |
| 4.43 | 4.48 | – | – | – | O=c1n(-c2ccc(Br)c(SCC(F)(F)F)c2)nc(OCC(F)(F)F)n1C1CC1 [Example 378] | – | 90 | – |
| 3.99 | 4.03 | – | – | – | CCSc1nn(-c2cc(SCC(F)(F)F)c(C)cc2F)c(=O)n1C1CC1 [Example 261] | – | 100 | – |
| 3.99 | 3.93 | – | – | – | Cc1cc(F)c(-n2nc(CC(C)C)n(C3CC3)c2=O)cc1SCC(F)(F)F [Example 83] | – | 100 | – |
| 4.00 | 3.92 | – | – | – | CCCOc1nn(-c2cc(SCC(F)(F)F)c(C)cc2F)c(=O)n1C1CC1 [Example 113] | – | 90 | – |
| 4.95 | 4.88 | – | – | – | Cc1cc(C)c(-n2nc(C(F)(F)F)n(C(C)(C)C)c2=O)cc1SCC(F)(F)F [Example 49] | – | 90 | – |
| 3.53 | 3.45 | – | – | – | Cc1cc(F)c(-n2nc(SCC(F)(F)F)n(C)c2=O)cc1SCC(F)(F)F [Example 281] | – | 100 | – |
| 2.65 | 2.60 | – | – | – | Cc1cc(F)c(-n2nc(SC(F)(F)F)n(C)c2=O)cc1[S+]([O-])CC(F)(F)F (racemic) [Example 284] | – | 100 | – |
| 2.97 | 2.92 | – | – | – | COc1nn(-c2cc(SCC(F)(F)F)c(F)cc2F)c(=O)n1C1CC1 [Example 171] | – | 100 | – |
| 3.64 | 3.56 | – | – | – | CCCc1nn(-c2cc(SCC(F)(F)F)c(C)cc2F)c(=O)n1C1CC1 [Example 79] | – | 100 | – |
| 4.24 | 4.14 | – | – | – | Cc1cc(F)c(-n2nc(C3CC3)n(C(C)C)c2=S)cc1SCC(F)(F)F [Example 498] | – | 100 | – |
| 4.01 | 3.92 | – | – | – | Cc1cc(C)c(-n2nc(OCC(F)(F)F)n(C3CC3)c2=O)cc1SCC(F)(F)F [Example 377] | – | 100 | – |
| 2.47 | 2.43 | – | – | – | CCOc1nn(-c2cc([S+]([O-])CC(F)(F)F)c(C)cc2F)c(=O)n1C1CC1 (stereo not drawn) [Example 121] | – | 100 | – |
| 2.32 | 2.27 | – | – | – | CNn1cnn(-c2cc(SCC(F)(F)F)c(C)cc2F)c1=O [Example 203] | – | 100 | – |
| 3.05 | 2.98 | – | – | – | Cc1cc(F)c(-n2nc(SC(F)(F)F)n(C3CC3)c2=O)cc1[S+]([O-])CC(F)(F)F (stereo not drawn) [Example 264] | – | 100 | – |
| 3.27 | 3.23 | – | – | – | Cc1cc(F)c(-n2ncn(C(C)(C)C)c2=O)cc1SCC(F)(F)F [Example 367] | – | 100 | – |
| 3.49 | 3.46 | – | – | – | COc1cc(F)c(-n2nc(OCC(F)(F)F)n(C3CC3)c2=O)cc1SCC(F)(F)F [Example 188] | 90 | – | – |
| 2.83 | 2.76 | – | – | – | COCCOc1nn(-c2cc(SCC(F)(F)F)c(C)cc2F)c(=O)n1C [Example 149] | – | 100 | – |
| 2.91 | 2.90 | – | – | – | COCc1nn(-c2cc(SCC(F)(F)F)c(C)cc2F)c(=O)n1C1CC1 [Example 46] | – | 90 | – |
| 3.66 | 3.58 | – | – | – | Cc1cc(F)c(-n2nc(OCC3CC3)n(C)c2=O)cc1SCC(F)(F)F [Example 143] | – | 90 | – |

Continued, compound first:

| Structure (SMILES) | logP[a] [1] | logP[b] [2] | chromatographic logP [1, 3] | chromatographic logP [1, 4] | chromatographic logP [2] | efficacy (Tetranychus urticae; application rate of 100 g/ha) [%] | efficacy (Tetranychus urticae; application rate of 500 g/ha) [%] | pest or weed control at 500 g/ha (Tetranychus urticae; application rate of 500 g/ha) [%] |
| --- | --- | --- | --- | --- | --- | --- | --- | --- |
| Cc1cc(F)c(-n2nc(N(C)C)n(C)c2=O)cc1[S+]([O-])CC(F)(F)F (racemic) [Example 191] | 1.86 | 1.84 | – | – | – | – | 90 | – |
| Cc1cc(F)c(-n2nnn(-c3ccc(Cl)cc3)c2=O)cc1[S+]([O-])CC(F)(F)F (stereo not drawn) [Example 307, 1-(4-Chlorophenyl)-4-{2-fluoro-4-methyl-5-[(2,2,2-trifluoroethyl)sulphinyl]phenyl}-1,4-dihydro-5H-tetrazol-5-one] | – | – | 3.53 | 3.53 | 3.49 | – | – | 100 |
| CCSc1nn(-c2cc([S+]([O-])CC(F)(F)F)c(C)cc2F)c(=O)n1C (stereo not drawn) [Example 274, 5-(Ethylsulphanyl)-2-{2-fluoro-4-methyl-5-[(2,2,2-trifluoroethyl)sulphinyl]phenyl}-4-methyl-2,4-dihydro-3H-1,2,4-triazol-3-one] | – | – | 2.42 | 2.42 | 2.36 | – | – | 100 |
| CC1=CC(=O)N(c2cc(SCC(F)(F)F)c(C)cc2F)C1=O [Example 340] | 3.37 | 3.39 | – | – | – | – | 90 | – |
| C=CCn1c([S+]([O-])CC)nn(-c2cc([S+]([O-])CC(F)(F)F)c(C)cc2F)c1=O (stereo not drawn) [Example 424] | 2.05 | 2.04 | – | – | – | – | 90 | – |
| Cc1cc(F)c(-n2nc(C3CC3)n(N(C)C)c2=O)cc1[S+]([O-])CC(F)(F)F (stereo not drawn) [Example 197, 5-Cyclopropyl-4-(dimethylamino)-2-{2-fluoro-4-methyl-5-[(2,2,2-trifluoroethyl)sulphinyl]phenyl}-2,4-dihydro-3H-1,2,4-triazol-3-one] | – | – | 2.6 | 2.6 | 2.59 | – | – | 100 |
| Cc1cc(F)c(-n2nc(SCc3ccccc3)n(C)c2=O)cc1[S+]([O-])CC(F)(F)F (racemic) [Example 287] | 3.08 | 3.02 | – | – | – | – | 100 | – |
| CCCCn1c(C(F)(F)F)nn(-c2cc([S+]([O-])CC(F)(F)F)c(C)cc2F)c1=O (stereo not drawn) [Example 365] | 3.61 | 3.54 | – | – | – | – | 100 | – |
| COc1nn(-c2cc([S+]([O-])CC(F)(F)F)c(C)cc2F)c(=O)n1C1CC1 (single isomer, unassigned) [Example 379] | 2.14 | 2.09 | – | – | – | – | 90 | – |
| Cc1cc(F)c(-n2nc(C(F)(F)F)n(CC(F)(F)F)c2=O)cc1[S+]([O-])CC(F)(F)F (stereo not drawn) [Example 56] | 3.20 | 3.09 | – | – | – | 90 | – | – |
| COC1=CC(=O)N(c2cc(SCC(F)(F)F)c(Cl)cc2F)C1 [Example 327] | 2.97 | 2.92 | – | – | – | – | 90 | – |
| Cc1ccc(-n2nc(-n3nc(Oc4ccccc4)n(C)c3=O)n(C)c2=O)cc1SCC(F)(F)F [Example 192] | 3.76 | 3.68 | – | – | – | – | 90 | – |
| CCCOc1nn(-c2cc([S+]([O-])CC(F)(F)F)c(C)cc2F)c(=O)n1C (stereo not drawn) [Example 132] | 2.52 | 2.47 | – | – | – | – | 100 | – |
| Cc1cc(F)c(-n2nc(C3CCC3)n(C3CC3)c2=O)cc1[S+]([O-])CC(F)(F)F (racemic) [Example 88] | 2.72 | 2.66 | – | – | – | – | 100 | – |
| Cc1cc(F)c(-n2nc(C(C)(C)C)oc2=O)cc1[S+]([O-])CC(F)(F)F (racemic) [Example 452] | 3.10 | 3.09 | – | – | – | – | 100 | – |
